Assay results from ChEMBL document CHEMBL3044569, “Mini-plot field experiments using seed dressings to control slug damage to oilseed rape” (Crop Prot, 2006).
Calls of active or inactive are those of the source. The rule behind the calls is not given here.

Assays:
Deroceras reticulatum [1] = test: Pesticidal activity against Deroceras reticulatum infected oilseed rape assessed as protection against slug damage studied in autumn applied as pellet at 8 kg product/ha after 1 to 4 weeks relative to untreated control; type: functional, organism-based
Deroceras reticulatum [2] = test: Pesticidal activity against Deroceras reticulatum infected oilseed rape assessed as protection against slug damage studied in spring applied during seed dressing at 60 g a.i/kg seed after 2 to 4 weeks relative to untreated control; type: functional, organism-based
Brassica napus [3] = test: Phytotoxicity in Brassica napus (oilseed rape) at 58 g a.i/kg applied during seed dressing after 4 weeks studied in autumn (reference value: 89 +/- 2.9 %); type: organism-based; conditions: in vivo, other, 672 h
Deroceras reticulatum [4] = test: Pesticidal activity against Deroceras reticulatum infected oilseed rape assessed as protection against slug damage studied in autumn applied during seed dressing at 58 g a.i/kg seed after 1 to 4 weeks relative to untreated control; type: functional, organism-based
Brassica napus [5] = test: Phytotoxicity in Brassica napus (oilseed rape) at 60 g a.i/kg applied during seed dressing after 4 weeks studied in spring (reference value: 91 +/- 2.8 %); type: organism-based; conditions: in vivo, other, 672 h
Deroceras reticulatum [6] = test: Pesticidal activity against Deroceras reticulatum infected oilseed rape assessed as protection against slug damage studied in spring applied as pellet at 8 kg product/ha after 1 to 4 weeks relative to untreated control; type: functional, organism-based
Deroceras reticulatum [7] = test: Pesticidal activity against Deroceras reticulatum infected oilseed rape assessed as protection against slug damage studied in autumn applied during seed dressing at 18 g a.i/kg seed after 1 to 4 weeks relative to untreated control; type: functional, organism-based
Deroceras reticulatum [8] = test: Pesticidal activity against Deroceras reticulatum infected oilseed rape assessed as protection against slug damage studied in spring applied during seed dressing at 20 g a.i/kg seed after 2 to 4 weeks relative to untreated control; type: functional, organism-based
Brassica napus [9] = test: Phytotoxicity in Brassica napus (oilseed rape) at 18 g a.i/kg applied during seed dressing after 4 weeks studied in autumn (reference value: 89 +/- 2.9 %); type: organism-based; conditions: in vivo, other, 672 h
Brassica napus [10] = test: Phytotoxicity in Brassica napus (oilseed rape) at 20 g a.i/kg applied during seed dressing after 4 weeks studied in spring (reference value: 91 +/- 2.8 %); type: organism-based; conditions: in vivo, other, 672 h

| Compound | Activity (Deroceras reticulatum [1]) | Activity (Deroceras reticulatum [2]) | Activity (Brassica napus [3]) [%] | Activity (Deroceras reticulatum [4]) | Activity (Brassica napus [5]) [%] | Activity (Deroceras reticulatum [6]) | Activity (Deroceras reticulatum [7]) | Activity (Deroceras reticulatum [8]) | Activity (Brassica napus [9]) [%] | Activity (Brassica napus [10]) [%] |
| --- | --- | --- | --- | --- | --- | --- | --- | --- | --- | --- |
| CC1OC(C)OC(C)OC(C)O1 (stereo not given) [METALDEHYDE] | Active | Active | 77 | Active | 90.3 | Active | – | – | – | – |
| CNC(=O)Oc1cc(C)c(SC)c(C)c1 [METHIOCARB] | – | – | – | – | – | – | Active | Active | 86.5 | 87.5 |
